Measured values reported in US10624875B2, “Methods and compositions for treating schizophrenia” (The Johns Hopkins University, priority 2012, dated 2020).

Key:
[1] = test system: aMCI subjects; test: explicit 3-alternative forced choice task (lure images), cognitive performance; type: in vivo, human; details: 125 mg twice a day for two weeks, versus placebo
From the text: There are various tests known in the art for assessing cognitive function in humans, for example and without limitation, the clinical global impression of change scale (CIBIC-plus scale); the Mini Mental State Exam (MMSE); the Neuropsychiatric Inventory (NPI); the Clinical Dementia Rating Scale (CDR); the Cambridge Neuropsychological Test Automated Battery (CANTAB); the Sandoz Clinical Assessment-Geriatric (SCAG), the Buschke Selective Reminding Test (Buschke and Fuld, 1974); the Verbal Paired Associates subtest; the Logical Memory subtest; the Visual Reproduction subtest of the Wechsler Memory Scale-Revised (WMS-R) (Wechsler, 1997); the Benton Visual Retention Test, or MATRICS consensus neuropsychological test battery which includes tests of working memory, speed of processing, attention, verbal learning, visual learning, reasoning and problem solving and social cognition. […]
As described above, the drug treatment period is the two weeks preceding Visit 1 or 2 (with the two week period preceding the other Visit being the placebo phase). For the subjects receiving the drug treatment, half a scored 250 mg tablet of levetiracetam is used to achieve a dose of […], which is approximately 3.6 mg/kg/day (assuming an average adult human weight of 70 kg). […]

[2] = test system: entorhinal cortex (EC); test: fMRI activity during explicit 3-alternative forced choice task, entorhinal cortex; type: in vivo, human; details: aMCI subjects, 125 mg twice a day for two weeks, versus placebo
Method: A within-subjects trial of 8 weeks duration, involving 17 amnestic MCI (aMCI) subjects and 17 age-matched controls with a low dose treatment of levetiracetam is conducted. During the course of the study, each aMCI subject receives both drug and placebo treatments separately in two periods of two weeks each, with the order of treatments among different aMCI subjects counterbalanced (see FIG. 7). Age-matched control subjects treated with placebo serve as a further control. Cognitive testing and fMRI imaging data are obtained from the subjects after each two week period of drug/placebo treatment. As described above, the drug treatment period is the two weeks preceding Visit 1 or 2 (with the two week period preceding the other Visit being the placebo phase). […] Imaging data are obtained through high-resolution methods developed in the Stark laboratory. Data are collected on a Phillips 3 Tesla scanner (Eindhoven, The Netherlands) equipped with an 8-channel SENSE (Sensitivity Encoding) head coil, located at the F.M. Kirby Research Center for Functional Brain Imaging at the Kennedy Krieger Institute (Baltimore, Md.). […] Group data are analyzed using a two-way Analysis of Variance (ANOVA) with trial types and group as fixed factors, and subject as a random factor nested within group. […]

SMILES: CC[C@@H](C(N)=O)N1CCCC1=O [levetiracetam, (2S)-2-(2-oxopyrrolidin-1-yl) butanamide]
- performance in the explicit 3-alternative forced choice task [1]: improves significantly
- EC activity during memory judgments [2]: increases EC activity
